experiment: method code SF, from DOI: 10.1016/j.ejps.2012.10.019, PMID: 23131797; conditions: pH 2.0

SMILES	logD
COc1cccc(-n2c(SCc3cc(=O)n4ccsc4n3)nc3ccccc3c2=O)c1	3.56
Cc1c(NC(=O)CC(c2ccccc2)c2ccccc2)cccc1-n1cnnn1	3.2

same assay, conditions: pH 5.0

SMILES	logD
COc1ccc(C(=O)CSc2nnc(-c3ccccc3)o2)cc1	4.15
C=CCOC(=O)COc1ccc2c(=O)c(-c3ccc(Cl)cc3)c(C)oc2c1	4.84
CCCN(CC1CC1)C(=S)Nc1cc([N+](=O)[O-])ccc1Cl	4.1
CCOc1ccc(NC=C(S(=O)(=O)c2ccc(C)cc2)S(=O)(=O)c2ccc(C)cc2)cc1	5.64
CCn1cc(CN(C)C(=O)c2cc3cc(Br)ccc3oc2=O)c(C)n1	3.27
CC(=O)Nc1cccc(C(=O)OCC(=O)c2c(N)n(C)c(=O)n(C)c2=O)c1	3.57
CC(C)OCCCNC(=O)C(=O)NCc1ccc(C(C)C)cc1	4.57
COc1ccc(N2C(=O)Cc3ccccc3C2=O)cc1	2.56
COc1ccc(C(=O)OCC(=O)NC2CCCCCCC2)cc1[N+](=O)[O-]	4.28
COc1ccc(N2C3=C(C(=O)CC(C)(C)C3)C(c3ccc4c(c3)OCO4)C3=C2CC(C)(C)CC3=O)cc1	5.72
CCc1cc(=O)oc2c(C)c(OCC(=O)OC(C)(C)C)ccc12	4.52
N#CCc1nc(-c2ccc3c(c2)OCCO3)cs1	2.92
COC(=O)c1cc(C(=O)OCC(=O)c2[nH]c(C)c(C(C)=O)c2C)cc([N+](=O)[O-])c1	3.82
COCc1cc(OC(=O)N(C)C)nc(SCC(=O)C(C)(C)C)n1	3.33
CCOC(=O)CSc1nnnn1-c1cccc2ccccc12	3.8
CCc1c(C#N)c(SCC(=O)N2CCc3cc(OC)c(OC)cc3C2)nc2c1C(=O)CC(C)(C)C2	4.89
C#Cc1cccc(NC(=O)c2cc(C(=O)Nc3cccc(C#C)c3)cc(N3C(=O)c4ccccc4C3=O)c2)c1	6.85
CCOC(=O)c1c(C)[nH]c(C)c1C(=O)COC(=O)c1ccc(F)c(S(=O)(=O)N2CCOCC2)c1	3.63
Cc1cc(C(=O)COC(=O)c2oc3ccccc3c2COC(C)C)c(C)n1-c1c(C)n(C)n(-c2ccccc2)c1=O	5.39
O=C(COc1ccc(C(F)(F)F)cc1[N+](=O)[O-])Nc1ccccc1Br	5.16
COC(=O)c1cnn2c(C(F)(F)F)cc(-c3cc(OC)c(OC)c(OC)c3)nc12	4.08

SMILES	logD
CCc1ccc(OCC(=O)NCCc2ccc(OC)c(OC)c2)cc1	4.22
COc1ccc(CCNC(=O)CSc2nc3c(c(=O)n(C)c(=O)n3C)n2Cc2ccccc2F)cc1OC	4
O=C(OCC(=O)N1CCCC1)c1c2ccccc2cc2ccccc12	4.09
O=C(Nc1ccccc1C(F)(F)F)C1CCC1	2.55
CCCS(=O)(=O)c1c(S(=O)(=O)CCC)c2cnccn2c1C(=O)c1ccc(C)cc1	3.93
O=C1c2ccccc2C(=O)N1c1ccccc1C(F)(F)F	3.55
COc1ccc(S(=O)(=O)n2c(=O)n(S(=O)(=O)c3ccc(OC)cc3)c3ccccc32)cc1	5.22
Clc1ccc(CSc2ncccn2)cc1Cl	4.33
COc1cc(C(=O)c2ccc(F)cc2)cc(C(=O)c2ccc(F)cc2)c1	4.89
CCOC(=O)c1[nH]c2c(c1C)C(Cl)=C(C=O)CC2	3.92
Cc1ccc(SCC(=O)NCc2cccc(CNC(=O)CSc3ccc(C)cc3)c2)cc1	5.08
N#Cc1nc2c(S(=O)(=O)c3ccccc3)c(N)n(Cc3ccc(F)cc3)c2nc1C#N	4.86
CCOC(=O)C(C)(C)N(CCC(C)C)S(=O)(=O)c1ccc([N+](=O)[O-])cc1	4.75
O=C(Nc1ccc(S(=O)(=O)c2ccc(NC(=O)c3cccs3)cc2)cc1)c1cccs1	4.46
N#Cc1c(SCC(=O)OCc2ccccc2)nsc1SCC(=O)OCc1ccccc1	5.6
CCOc1ccc(-n2c(SCC(=O)NC3CC3)nc3sc4c(c3c2=O)CCC4)cc1	4.64
COC(=O)c1cccc(NC(=O)CCN2C(=O)c3ccccc3C2=O)c1	3.39
COCCCNC(=O)c1ccccc1C(F)(F)F	2
CC(=O)NCCc1ccc(S(=O)(=O)N2CCOCC2)cc1	2
CCOc1cc(C#N)c(NC(=O)c2cc(S(=O)(=O)N3CCOCC3)c(Cl)cc2Cl)cc1OCC	4.31
O=C(NC1CC1)c1ccc(COc2c(F)c(F)cc(F)c2F)o1	3.54

SMILES	logD
Cc1ccc(-c2cc(C(F)F)n3ncc(C(=O)N4CCSCC4)c3n2)cc1	4.55
O=C(Cn1c(=O)n(-c2ccccc2)c(=O)n1CC(=O)N1CCCCC1)N1CCCCC1	2.78
COc1ccc(C)cc1-n1nnnc1SCC(=O)Nc1cc(C(N)=O)cc(C(N)=O)c1	4.15
O=C(c1ccc(F)cc1)C1CC1	2.61
Cc1ccccc1-c1noc(CCl)n1	3.3
CSc1nc2c(C#N)c(SC)nn2c(-c2ccc(Cl)cc2)c1C#N	5.51
CCOC(=O)c1ccc(NCc2c(C)[nH]c(C(=O)OCC)c2C)cc1	5.09
CCOC(=O)C1=C(Nc2ccc(OC(=O)Nc3ccc(OC(F)(F)F)cc3)cc2)C(=O)N(C(C)(C)C)C1	6.72
O=C(OCC(=O)N1CCC(Cc2ccccc2)CC1)C1CCCCC1	4.98
CCCCCCSC1=C(C#N)C(c2cccs2)C(C(=O)Nc2ccccc2OC)=C(C)N1 (stereo not given)	6.28
C#CCOc1c(I)cc(C=C2C(=O)N(C)C(=S)N(C)C2=O)cc1OCC	3.72
CCCC(=O)OCC(=O)Nc1ccc(F)cc1Cl	3.02
FC(F)(F)c1nc(-c2ccc(-c3noc(C(F)(F)F)n3)cc2)no1	6.06
O=C(NC1CCCC1)C1c2ccccc2Oc2ccccc21	3.95
COC(=O)c1ccc(-n2c(C)cc(C(=O)COc3cccc(-n4cnnn4)c3)c2C)cc1	4.77
CCOc1ccc(NC(=O)CSc2nc3ccsc3c(=O)n2-c2ccccc2)cc1	4.33
COc1cc(C(=O)Nc2ccccc2C(C)(C)C)cc(OC)c1OC	3.61
O=C(CSc1nnc(-c2cccs2)o1)NCCN1C(=O)CSC1=O	2.31
COC(=O)CN(c1ccccc1)S(=O)(=O)c1ccc(OC)cc1	3.43

same assay, conditions: pH 6.5

SMILES	logD
Cc1c(C)c(C)c(CSc2nnc(CC#N)n2C)c(C)c1C	4.14
CC1CCC2(CC1)N=C(c1ccccc1)C(=O)N2CC(=O)Nc1ccc2c(c1)OCCO2 (stereo not given)	5.07
CCCn1c(SCc2cc(=O)n3cc(Br)ccc3n2)nnc1-c1cccc(C)c1	4.43
N#CC1=C(N)Oc2c(oc(CO)cc2=O)C1c1ccccc1OCc1ccccc1Cl (stereo not given)	4.34
O=C(c1cccc([N+](=O)[O-])c1)N(Cc1ccccc1F)N1C(=O)c2ccccc2C1=O	4.47
O=C(Nc1ccc(N2CCN(C(=O)c3ccco3)CC2)c(Cl)c1)c1c(F)c(F)c(F)c(F)c1F	5.85

same assay, conditions: pH 7.0

SMILES	logD
Cc1ccc(C(=O)N2C(=O)c3cccc(N)c3C2=O)cc1NC(=O)c1ccco1	3.55

same assay, conditions: pH 7.3

SMILES	logD
Cn1c(C(=O)N2CCC3(CC2)OCCO3)cc2c(=O)n3ccccc3nc21	2.87
CC(Sc1nnc(-c2ccc(F)cc2)n1-c1ccccc1)C(N)=O (stereo not given)	3.38
O=C(c1nn(-c2ccccc2)c(=O)c2ccccc12)N1CCOCC1	2.47
C=CCn1c(SCc2ccccc2)nc2ccccc2c1=O	5.11
O=C(CSc1ncnc2sc3c(c12)CCC3)Nc1ccc(F)cc1	4.69
COC(=O)c1sc(N)nc1C	1.48
Cc1cc(Br)ccc1NC(=O)CSc1nnc(N)s1	2.69
Cc1cccc(NC(=O)CSc2ccccn2)c1C	3.19
COc1cccc(Cn2cc(N)cn2)c1	1.55
Cn1c(SCC(=O)NC2CCCCCC2)nnc1-c1ccc(Cl)cc1	4.21
C=C(c1ccc(N(C)C)cc1)c1ccc(N(C)C)cc1	5.3
n1onc2c1NC1Nc3nonc3NC1N2 (stereo not given)	0.3
CC(C)CCn1c(NCCO)nc2c1c(=O)n(C)c(=O)n2C	2.93
COc1ccc(C2CC(=O)C3=C(C2)Nc2ccccc2N(C(=O)C(F)(F)F)C3c2cc(OC)c(OC)c(OC)c2)cc1 (stereo not given)	4.87
NC(=O)CSc1nc2c(c(=O)n1Cc1ccco1)C1(CCCCC1)Cc1ccccc1-2	5.45
CC(C)N(C(=O)CSc1nnc(NCc2ccccc2)s1)C(C)C	4.09
O=C(CSc1nnc(-c2ccccc2F)n1CCc1ccccc1)N1CCOCC1	3.79
Cc1nc(-c2ccc(Cl)cc2)cs1	3.65
Cc1cc2ccccc2c(=O)n1CC(=O)NCC(=O)N1CCN(c2cccc(Cl)c2)CC1	4.45

same assay, conditions: pH 8.0

SMILES	logD
CCOC(=O)c1nc(N)sc1C	1.74

same assay, conditions: pH 10.0

SMILES	logD
Nc1ccccc1Nc1ccccc1	2.67
CCOC(=O)C1=C(C)NC(C)=C(C(=O)OC)C1c1ccco1 (stereo not given)	3.67
c1nc(NC2CCCC2)c2c3c(sc2n1)CCCC3	4.17
CCc1noc(-c2[nH]c3ccccc3c2C(=O)C(=O)N(C)C)c1C	2.68
Cc1cc(C(F)(F)F)n2nc(-c3nnc(-c4cccc(C(F)(F)F)c4)o3)cc2n1	4.92

same assay, conditions: pH 10.5

SMILES	logD
COC(=O)COc1cc2occ(-c3csc(C)n3)c(=O)c2cc1C	3.9
CC1=NN(c2ccccc2)C(=O)C1Sc1nc(N)c(C#N)c(-c2ccc(C)cc2)c1C#N (stereo not given)	4.99
COc1ccc(S(=O)(=O)N2CCCCCC2)cc1C(=O)OCC(=O)c1c(N)n(C)c(=O)n(C)c1=O	4.59
Nc1cccc2c1C(=O)N(C(=O)c1cc(-c3ccccc3Cl)nc3ccccc13)C2=O	4.63
CCOC(=O)N1CCN(c2nc(C(F)(F)F)nc3c(C)cc(C)cc23)CC1	5.92
CCCNC(=O)N1CCN(C(=O)NCCC)CC1	1.04
O=C(CSc1nnc(-c2ccccc2)n1-c1ccccc1)N1CCN(C(=O)c2ccccc2)CC1	4.64
Cc1ccc(-n2c(C)cc(=O)cc2C)cc1C	2.95
CCc1ccc2nc3c(cc2c1)c(=O)n(-c1ccccc1)c1c3c(=O)n(C)c(=O)n1C	4.31
CCn1c(SCc2ccccc2F)nc2sc(C)c(C)c2c1=O	5.86
Cc1nnc2c(=O)n(CCNc3ncc(C(F)(F)F)cc3Cl)c3ccc(Cl)cc3n12	4.57
Cc1ccc(S(=O)(=O)N(C)c2ccc(OCC(=O)N3CCN(c4ncccn4)CC3)cc2)cc1	4.46
CC(C)(C)c1cc(Cc2ccccc2)n[nH]1	4.35
CC(C)(C)c1cc(-c2nc(-c3ccc(C(F)(F)F)cn3)no2)n(Cc2ccccc2)n1	6.58
CCN(CC)c1ccc(C=C2C(=O)c3ccccc3C2=O)c(OC)c1	5.05

Source: the SangsterLogP compilation
